Experiments:
human TRPV4 [1] = molecular target: T1, human TRPV4 (Homo sapiens (Human), UniProt Q9HBA0); assay: Test Example 3: measurement of TRPV4 inhibitory activity (Fluo-3, FDSS 3000, 4α-PDD); type: cell-based; conditions: hTRPV4/CHO cells, calculated from IC50 and 4α-PDD EC50
Method in brief: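 Fluo-3-loaded CHO-K1 cells stably expressing TRPV4 in HEPES/probenecid Hanks buffer pH 7.4; compound added, then 4α-PDD, Ca2+ fluorescence (Ex 480/Em 540 nm) read 8 min. Max-Min normalized to 10 μM Ruthenium Red (100%) and vehicle; IC50 from 10-point 3-fold series converted to Ki using 4α-PDD EC50 and concentration.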

Solubility test = type: physicochemical; conditions: artificial intestinal juice (phosphate buffer) with 1% DMSO, fassgf or other biorelevant, kinetic from dmso stock, artificial intestinal juice pH 6.8, 16 hours at 25° C.
Procedure: The solubility of each compound is determined under 1% DMSO addition conditions. A 10 mmol/L solution of the compound is prepared with DMSO, and 6 μL of the compound solution is added to 594 μL of an artificial intestinal juice (water and 118 mL of 0.2 mol/L NaOH reagent are added to 250 mL of 0.2 mol/L potassium dihydrogen phosphate reagent to reach 1000 mL) with a pH of 6.8. The mixture is left standing for 16 hours at 25° C., and the mixture is vacuum-filtered. The filtrate is two-fold diluted with methanol/water=1/1, and the compound concentration in the filtrate is measured with HPLC or LC/MS/MS by the absolute calibration method.

[2] = Metabolism stability test; type: in vitro ADME; conditions: human liver microsomes, 30 minutes
Procedure: Using a commercially available pooled human hepatic microsomes, a test compound was reacted for a constant time, a remaining rate was calculated by comparing a reacted sample and an unreacted sample, thereby, a degree of metabolism in liver was assessed.
A reaction was performed (oxidative reaction) at 37° C. for 0 minute or 30 minutes in the presence of 1 mmol/L NADPH in 0.2 mL of a buffer (50 mmol/L Tris-HCl pH 7.4, 150 mmol/L potassium chloride, 10 mmol/L magnesium chloride) containing 0.5 mg protein/mL of human liver microsomes. After the reaction, 50 μL of the reaction mixture was added to 100 μL of a methanol/acetonitrile=1/1 (v/v), mixed and centrifuged at 3000 rpm for 15 minutes. The test compound in the supernatant was quantified by LC/MS/MS, and a remaining amount of the test compound after the reaction was calculated, letting a compound amount at 0 minute reaction time to be 100%. Hydrolysis reaction was performed in the absence of NADPH and glucuronidation reaction was in the presence of 5 mM UDP-glucuronic acid in place of NADPH, followed by similar operations.

[3] = BA test (oral absorbability); type: in vivo; conditions: plasma; Mouse, oral administration 1 mg/kg
Procedure: An experimental material and a method for examining oral absorbability
(1) Animals used rats or mice were used.
(2) Breeding condition: chow and sterilized tap water were allowed to be taken in freely.
(3) Setting of a dosage and grouping: a predetermined dosage was administered orally or intravenously. Groups were formed as shown below. (A dosage varied depending on each compound) Oral administration 1-30 mg/kg (n=2 to 3) Intravenous administration 0.5-10 mg/kg (n=2 to 3) (4) Preparation of administered liquid: In oral administration, a solution or suspension was administered. In intravenous administration, after solubilization, the administration was performed. (5) Method of Administration: In oral administration, compulsory administration to the stomach was conducted using an oral probe.
In intravenous administration, administration from the caudal vein was conducted using a syringe with an injection needle.
(6) Evaluation item: Blood was chronologically collected, and then the drug concentration in blood plasma was measured using a LC/MS/MS.
(7) Statistical analysis: With regard to a shift in plasma concentration, the plasma concentration-time area under the curve (AUC) was calculated using a nonlinear least-squares program WinNonlin®. Bioavailability (BA) was calculated from the AUCs of the oral administration group and the intravenous administration group, respectively. […]

human TRPV4 [4] = molecular target: T1, human TRPV4; assay: Test Example 1: measurement of TRPV4 inhibitory activity (Fluo 4-AM, FLIPR TETRA, 4α-PDD 1 μmol/L); type: cell-based; conditions: hTRPV4/CHO cells, 4α-PDD 1 μmol/L
Method in brief: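 CHO-K1 cells stably expressing human TRPV4, Fluo-4-loaded, pre-incubated 5 min with compound (10 points, 3-fold, 10 μmol/L to 0.5 nmol/L) before 1 μmol/L 4α-PDD; FLIPR max-min fluorescence over 5 min, normalised to 20 μM Ruthenium Red. IC50 by logistic fit; Ki from IC50 using 4α-PDD EC50.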

human TRPV4 [5] = molecular target: T1, human TRPV4; assay: Test Example 2: measurement of TRPV4 inhibitory activity (Fluo 3-AM, FLIPR, 4α-PDD 600 nmol/L); type: cell-based; conditions: hTRPV4/CHO cells
Procedure: For each compound, TRPV4 inhibitory activity was measured using cells.
(1) The TRPV4 inhibitory activity was measured using CHO-K1 cells stably expressing human TRPV4 (hTRPV4/CHO cells).
(2) In the day before the experimental day, frozen cell were thawed and washed with the culture medium (MEM-α, 10% FBS, 4 mmol/L L-Glutamine, 50 unit Penicillin, 50 μg/mL Streptomycin). Then cells were suspended in the culture medium.
(3) The 384-well plates which hTRPV4/CHO cells were seeded at densities of 4000 cells/well in the culture medium and cultured in a CO2 incubator in the presence of 5% CO2 at 37° C. for overnight was used as assay plates. […]
(7) Diluted compound solution was dispensed to each well in the compound plate, and mixed with built-in Pipette and Mixer of the Fluorescence analysis system FLIPR 384 (Molecular devices). […]
(9) The fluorescent intensity was measured with FLIPR TETRA system for 7 min from the point of time addition the compound solution, at Ex 488 nm, Em 510-570 nm wavelength.
TRPV4 inhibitory activity (IC50 value) of a compound was evaluated according to the following procedure.
(10) In the presence of the compound, the difference between maximal and minimal of fluorescent intensity value for 3 min from just before addition of 4α-PDD solution was calculated, and it was referred as Max-Min value. […]

T1 sequence (Q9HBA0 whole entry): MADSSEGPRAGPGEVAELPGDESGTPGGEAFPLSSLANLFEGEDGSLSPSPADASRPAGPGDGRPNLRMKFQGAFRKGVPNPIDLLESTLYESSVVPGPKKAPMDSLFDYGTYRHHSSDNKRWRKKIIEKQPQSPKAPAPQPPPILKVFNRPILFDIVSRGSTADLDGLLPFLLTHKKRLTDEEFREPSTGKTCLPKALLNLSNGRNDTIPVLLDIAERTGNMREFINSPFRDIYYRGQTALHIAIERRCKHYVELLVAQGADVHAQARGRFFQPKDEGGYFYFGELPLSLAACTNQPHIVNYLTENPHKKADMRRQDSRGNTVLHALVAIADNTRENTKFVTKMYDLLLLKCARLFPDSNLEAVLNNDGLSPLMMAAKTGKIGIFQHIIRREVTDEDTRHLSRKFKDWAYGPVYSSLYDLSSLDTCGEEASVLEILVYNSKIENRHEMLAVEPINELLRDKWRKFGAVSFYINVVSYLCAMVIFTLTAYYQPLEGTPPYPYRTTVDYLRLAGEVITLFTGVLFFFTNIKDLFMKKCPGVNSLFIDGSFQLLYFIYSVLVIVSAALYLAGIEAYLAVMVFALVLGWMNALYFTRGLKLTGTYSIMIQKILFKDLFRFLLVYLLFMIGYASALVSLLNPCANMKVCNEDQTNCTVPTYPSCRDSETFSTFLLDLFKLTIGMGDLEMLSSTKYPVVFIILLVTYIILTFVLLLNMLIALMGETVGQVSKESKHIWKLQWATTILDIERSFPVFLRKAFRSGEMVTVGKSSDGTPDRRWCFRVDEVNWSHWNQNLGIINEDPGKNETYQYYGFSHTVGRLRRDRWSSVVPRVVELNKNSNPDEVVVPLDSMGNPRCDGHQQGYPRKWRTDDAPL

Row | remaining rate (metabolism stability) ([2]; compound concentration 0.5 μmol/L) | IC50 (human TRPV4 [4]) | IC50 (human TRPV4 [5]) | SMILES | Ki (human TRPV4 [1]) | solubility at 16 h (Solubility test) | remaining rate (metabolism stability) ([2]; compound concentration 2 μmol/L) | bioavailability [3]
1 | – | – | – | Cc1c(C(=O)Nc2cccc(C(F)(F)F)c2)cc(-c2ccccc2)n1CCCN1CCNCC1 [Compound I-014] | 355 nM | > 50 µM | 66.3% | 15.2%
2 | 92.2% | – | – | CNCCCn1c(-c2ccccc2)cc(C(=O)Nc2cccc(C(F)(F)F)c2)c1C [Compound I-031] | 160 nM | > 50 µM | – | 24.4%
3 | – | 1200 nM | 1600 nM | Cc1c(C(=O)Nc2cccc(C(F)(F)F)c2)cc(-c2ccccc2)n1CCSCc1c(F)cccc1Cl [Compound I-084] | – | – | – | –
